The results in this text go back to patent US20230295159A1, “ATX INHIBITOR, AND PREPARATION METHOD THEREFOR AND USE THEREOF” (SUZHOU ARK BIOPHARMACEUTICAL CO., LTD., priority 2020, published 2023).

Data set [1] concerns Chinese hamster ovary cells (CHO-WBL). Kind of data set: In vitro micronucleus assay with Chinese hamster ovary cells. The method, then:
In the major micronucleus assay, CHO-WBL cells were exposed to at least 3 concentrations of the test object, while vehicle control group and positive control group were set up, with 2 replicated wells for each dose group. In inactivated test system, the administration lasted for 3 and 24 hours, and in S9 activated test system, the exposure to the test object lasted for 3 hours.
When choosing the highest dose for micronucleus frequency assay, the cytotoxicity of dose group of the test object should not substantially exceed 50% of that of the corresponding vehicle control group.
On the premise that the test is valid, the test results are evaluated according to the following criteria:
If the test object simutaneously meets the following criteria, it can be considered as positive:
A significant increase in micronucleus frequency is observed in one or more concentration groups.
If none of the above three points is met, the test object can be considered as negative.

The next data set has as its target ATX enzyme (Homo sapiens (Human), UniProt Q13822). Kind of data set: ATX enzyme activity inhibition assay. In kind it is biochemical. As to conditions: 16:0-LPC substrate, Amplex UltraRed fluorescence. The protocol:
The tested compounds were dissolved with dimethyl sulfoxide (DMSO) to prepare 20 mM of stock solutions, the stock solutions were subjected to 4-fold gradient dilutions with DMSO, with the initial concentration of 20 µM and a total of 8 concentration gradients. 20 nL of diluted compound was transferred to a 384-well plate using Echo 550 and 5 µL of ATX enzyme solution formulated with 4 × Tris-HCl reaction buffer to the well, then the 384-well plate was centrifuged at 1000 rpm for 1 min and […] pre-incubated at room temperature for 15 min. Subsequently, 5 µL of 16:0-LPC foumulated with the above 4 × reaction buffer and 10 µL of assay solution containng 2 × Amplex UltraRed reagent, choline oxidase and horseradish peroxidase (HRP) foumulated with the same reaction buffer were added to each well, then the 384-well plate was centrifugated at 1000 rpm for 1 min. The fluorescence signals were read at an excitation wavelength of 530 nm and an emission wavelength of 590 nm by Synergy 2 microplate reader. The inhibition rate of the compound against enzyme reaction was calculated according to the fluorescence intensity ratio, and IC50 of the compound was analysed and calculated by GraphPad Prism 5 software.

A short description of data set [2]: Rat pharmacokinetic study. It is filed as in vivo, SD rat. The following applies: for half-life: read-out: t½ (converted). The method, then: SD rat pharmacokinetic study was performed on several compounds in Examples of the present disclosure through a single intravenous injection (IV, at a dose of 2 mg/kg) and a single oral administration (PO, at a dose of 10 mg/kg), and blood samples were taken before administration and 5 min, 15 min, 30 min, 1 h, 2 h, 4 h, 8 h, 12 h and 24 h after administration, respectively, to determine the plasma concentration of the compound for assay. The pharmacokinetic data of control compound and the compounds in Examples 17, 26, 28 and 29 of the present disclosure in rat plasma are shown in Tables 4-8.

[3] abbreviates: 3-hour administration with metabolic activation, 5 µg/ml.

Like-named read-outs stand apart in the source and are kept apart here.

Take `O=P1(N(CCCl)CCCl)NCCCO1` (stereo not drawn) [Cyclophosphamide monohydrate]: in data set [1] (setting [3]), the “% binuclear cells containing micronucleus” value was 20.8%.

As a reminder, the IC50 is the midpoint of a concentration-inhibition curve. As for `CCc1nc2ccc(-c3ccc(CC(=O)N4CC(O)C4)cc3)cn2c1N(C)c1nc(-c2ccc(F)cc2)c(C#N)s1` [Example 1, 2-((2-ethyl-6-(4-(2-(3-hydroxyazetidin-1-yl)-2-oxoethyl)phenyl)imidazo[1,2-a]pyridin-3-yl)(methyl)amino)-4-(4-fluorophenyl)thiazole-5-carbonitrile], at ATX enzyme, the IC50 turned out to be 30 nM.

Turning to `CCc1nc2ccc(-c3ccc(CC(=O)N4CC(O)C4)nc3)cn2c1N(C)c1nc(-c2ccc(F)cc2)c(C#N)s1` [Example 2, 2-((2-ethyl-6-(6-(2-(3-hydroxyazetidin-1-yl)-2-oxoethyl)pyridin-3-yl)imidazo[1,2-a]pyridin-3-yl)(methyl)amino)-4-(4-fluorophenyl)thiazole-5-carbonitrile], the IC50 on ATX enzyme turned out to be 29 nM.

With `CCc1nc2ccc(-c3cnc(CC(=O)N4CC(O)C4)c(F)c3)cn2c1N(C)c1nc(-c2ccc(F)cc2)c(C#N)s1` [Example 3, 2-((2-ethyl-6-(5-fluoro-6-(2-(3-hydroxyazetidin-1-yl)-2-oxoethyl)pyridin-3-yl)imidazo[1,2-a]pyridin-3-yl)(methyl)amino)-4-(4-fluorophenyl)thiazole-5-carbonitrile], the IC50 at ATX enzyme turned out to be 5.2 nM.

In the case of `CCc1nc2ccc(-c3ccc(CC(=O)N4CC(O)C4)nn3)cn2c1N(C)c1nc(-c2ccc(F)cc2)c(C#N)s1` [Example 5, 2-((2-ethyl-6-(6-(2-(3-hydroxyazetidin-1-yl)-2-oxoethyl)pyridazin-3-yl)imidazo[1,2-a]pyridin-3-yl)(methyl)amino)-4-(4-fluorophenyl)thiazole-5-carbonitrile], the 50% inhibitory concentration (IC50) on ATX enzyme was determined as 48 nM.

As for `CCc1nc2ccc(-c3ccc(CC(=O)N4CC(O)C4)nc3C)cn2c1N(C)c1nc(-c2ccc(F)cc2)c(C#N)s1` [Example 6, 2-((2-ethyl-6-(6-(2-(3-hydroxyazetidin-1-yl)-2-oxoethyl)-2-methylpyridin-3-yl)imidazo[1,2-a]pyridin-3-yl)(methyl)amino)-4-(4-fluorophenyl)thiazole-5-carbonitrile], the IC50 on ATX enzyme was 29 nM.

For the molecule `CCc1nc2ccc(-c3ccc(CC(=O)N4CC(O)C4)cn3)cn2c1N(C)c1nc(-c2ccc(F)cc2)c(C#N)s1` [Example 7, 2-((2-ethyl-6-(5-(2-(3-hydroxyazetidin-1-yl)-2-oxoethyl)pyridin-2-yl)imidazo[1,2-a]pyridin-3-yl)(methyl)amino)-4-(4-fluorophenyl)thiazole-5-carbonitrile], the half-maximal inhibitory concentration (IC50) at ATX enzyme came to 25 nM.

For the molecule `CCc1nc2ccc(-c3cnc(C(=O)N4CC(O)C4)cn3)cn2c1N(C)c1nc(-c2ccc(F)cc2)c(C#N)s1` [Example 8, 2-((2-ethyl-6-(5-(3-hydroxyazetidin-1-carbonyl)pyrazin-2-yl)imidazo[1,2-a]pyridin-3-yl)(methyl)amino)-4-(4-fluorophenyl)thiazole-5-carbonitrile], at ATX enzyme, the concentration for half-maximal inhibition (IC50) worked out at 4.4 nM.

In the case of `CCc1nc2ccc(-c3cnc(C(C)(C)C(=O)N4CC(O)C4)cn3)cn2c1N(C)c1nc(-c2ccc(F)cc2)c(C#N)s1` [Example 9, 2-((2-ethyl-6-(5-(1-(3-hydroxyazetidin-1-yl)-2-methyl-1-oxopropan-2-yl)pyrazin-2-yl)imidazo[1,2-a]pyridin-3-yl)(methyl)amino)-4-(4-fluorophenyl)thiazole-5-carbonitrile], the IC50 on ATX enzyme was found to be 28 nM.

Consider `CCc1nc2ccc(-c3ncc(CC(=O)N4CC(O)C4)cc3F)cn2c1N(C)c1nc(-c2ccc(F)cc2)c(C#N)s1` [Example 10, 2-((2-ethyl-6-(3-fluoro-5-(2-(3-hydroxyazetidin-1-yl)-2-oxoethyl)pyridin-2-yl)imidazo[1,2-a]pyridin-3-yl)(methyl)amino)-4-(4-fluorophenyl)thiazole-5-carbonitrile], for which, at ATX enzyme, the IC50 stood at 18 nM.

Regarding `CCc1nc2ccc(-c3cnc(CC(=O)N4CC[C@H](O)C4)cn3)cn2c1N(C)c1nc(-c2ccc(F)cc2)c(C#N)s1` [Example 11, (S)-2-((2-ethyl-6-(5-(2-(3-hydroxypyrrolidin-1-yl)-2-oxoethyl)pyrazin-2-yl)imidazo[1,2-a]pyridin-3-yl)(methyl)amino)-4-(4-fluorophenyl)thiazole-5-carbonitrile], at ATX enzyme, the IC50 is 25 nM.

Take `CCc1nc2ccc(-c3cnc(CC(=O)N4CC(CO)C4)cn3)cn2c1N(C)c1nc(-c2ccc(F)cc2)c(C#N)s1` [Example 12, 2-((2-ethyl-6-(5-(2-(3-(hydroxymethyl)azetidin-1-yl)-2-oxoethyl)pyrazin-2-yl)imidazo[1,2-a]pyridin-3-yl)(methyl)amino)-4-(4-fluorophenyl)thiazole-5-carbonitrile]: on ATX enzyme, the IC50 was 19 nM.

`CCc1nc2ccc(-c3cnc(CC(=O)N4CC[C@@H](O)C4)cn3)cn2c1N(C)c1nc(-c2ccc(F)cc2)c(C#N)s1` [Example 13, (R)-2-((2-ethyl-6-(5-(2-(3-hydroxypyrrolidin-1-yl)-2-oxoethyl)pyrazin-2-yl)imidazo[1,2-a]pyridin-3-yl)(methyl)amino)-4-(4-fluorophenyl)thiazole-5-carbonitrile]: at ATX enzyme, the half-inhibitory concentration (IC50) was 13 nM.

In the case of `CCc1nc2ccc(-c3cnc(CC(=O)NCC4CCC(=O)N4)cn3)cn2c1N(C)c1nc(-c2ccc(F)cc2)c(C#N)s1` (stereo not drawn) [Example 14, 2-(5-(3-((5-cyano-4-(4-fluorophenyl)thiazol-2-yl)(methyl)amino)-2-ethylimidazo[1,2-a]pyridin-6-yl)pyrazin-2-yl)-N-((5-oxopyrrolidin-2-yl)methyl)acetamide], on ATX enzyme, the IC50 was 42 nM.

Turning to `CCc1nc2ccc(-c3cnc(C(=O)NC4CC5(CNC5)C4)cn3)cn2c1N(C)c1nc(-c2ccc(F)cc2)c(C#N)s1` [Example 15, 5-(3-((5-cyano-4-(4-fluorophenyl)thiazol-2-yl)(methyl)amino)-2-ethylimidazo[1,2-a]pyridin-6-yl)-N-(2-azaspiro[3.3]heptan-6-yl)pyrazin-2-carboxamide], the IC50 at ATX enzyme is 40 nM.

Turning to `CCc1nn2ccc(-c3cnc(N4CCCS4(=O)=O)nc3)nc2c1N(CC)c1nc(-c2ccc(F)cc2)c(C#N)s1` [Example 18, 2-((5-(2-(1,1-dioxidoisothiazolidin-2-yl)pyrimidin-5-yl)-2-ethyl-pyrazolo[1,5-a]pyrimidin-3-yl)(ethyl)amino)-4-(4-fluorophenyl)thiazole-5-carbonitrile], the half-maximal inhibitory concentration (IC50) on ATX enzyme stood at 15 nM.

Usually AUC(0-inf) stands for the area under the concentration-time curve extrapolated to infinity. Broadly, the AUC(0-t) is the area under the concentration-time curve up to a stated or last time point. A high value points to high exposure. By Cmax is commonly meant the peak of the concentration-time curve. As usually defined, the Tmax is the time at which the peak concentration occurs. `CCc1nc2c(C)cc(N3CCN(CC(=O)N4CC(O)C4)CC3)cn2c1N(C)c1nc(-c2ccc(F)cc2)c(C#N)s1` [GLPG1690]: the values for the Cl_F_pred in data set [2] (IV 2 mg/kg) and in data set [2] (PO 10 mg/kg) were 7.5 mL/min/kg and 65.5 mL/min/kg, respectively. The same molecule registered a F in data set [2] (PO 10 mg/kg vs IV 2 mg/kg) of 12%. Moreover, the AUC(0-inf) is 4460 ng·h/mL in data set [2] (SD, plasma, IV 2 mg/kg) and 2700 ng·h/mL in data set [2] (SD, plasma, PO 10 mg/kg). For the same molecule, the exposure AUC(0-t) is 4460 ng·h/mL in data set [2] (SD, plasma, IV 2 mg/kg) and 2680 ng·h/mL in data set [2] (SD, plasma, PO 10 mg/kg). In addition, the Cmax in data set [2] (SD, plasma, IV 2 mg/kg) worked out at 8340 ng/mL; in data set [2] (SD, plasma, PO 10 mg/kg), 512 ng/mL. Further, the half-life was 1.5 h in data set [2] (SD, plasma, IV 2 mg/kg) and 4 h in data set [2] (SD, plasma, PO 10 mg/kg). In data set [2] (SD, plasma, PO 10 mg/kg), the Tmax worked out at 1 h. The “% binuclear cells containing micronucleus” value is listed as 1.55% in data set [1] (3-hour administration with metabolic activation, 2 µg/ml); 1.65% in data set [1] (setting [3]); 1.70% in data set [1] (3-hour administration with metabolic activation, 10 µg/ml); 1.85% in data set [1] (3-hour administration with metabolic activation, 30 µg/ml); 1.90% in data set [1] (3-hour administration without metabolic activation, 2 µg/ml); 1.85% in data set [1] (3-hour administration without metabolic activation, 5 µg/ml). The “% binuclear cells containing micronucleus” value in data set [1] (3-hour administration without metabolic activation, 10 µg/ml) is reported as 1.65%; in data set [1] (3-hour administration without metabolic activation, 30 µg/ml), 1.85%; in data set [1] (24-hour administration without metabolic activation, 2 µg/ml), 1.95%; in data set [1] (24-hour administration without metabolic activation, 4 µg/ml), 1.65%; in data set [1] (24-hour administration without metabolic activation, 6 µg/ml) it was 1.60%; in data set [1] (24-hour administration without metabolic activation, 7 µg/ml), 4.85%. The “% binuclear cells containing micronucleus” value in data set [1] (24-hour administration without metabolic activation, 8 µg/ml) turned out to be 14.4%. In data set [1] (overall verdict over all administration series), the “potential to induce micronucleus formation in CHO-WBL cells” value is listed as “positive”.
